Measured values as given in ChEMBL document CHEMBL1201862, “PubChem BioAssay data set” (2004).
Calls of active or inactive are those of the source. Cut-off read from the data, not from the text of the source, for most assays here: actives have a measured EC50 and inactives only a lower limit.

Tests used:
[1] = biological target: T1, High affinity choline transporter 1 (Homo sapiens, UniProt Q9GZV3); assay: CHT inhibitors, dose response, cell-based, 5-point CRC, membrane potential dye (AID 504840); format: functional
T1 sequence (Q9GZV3 whole entry): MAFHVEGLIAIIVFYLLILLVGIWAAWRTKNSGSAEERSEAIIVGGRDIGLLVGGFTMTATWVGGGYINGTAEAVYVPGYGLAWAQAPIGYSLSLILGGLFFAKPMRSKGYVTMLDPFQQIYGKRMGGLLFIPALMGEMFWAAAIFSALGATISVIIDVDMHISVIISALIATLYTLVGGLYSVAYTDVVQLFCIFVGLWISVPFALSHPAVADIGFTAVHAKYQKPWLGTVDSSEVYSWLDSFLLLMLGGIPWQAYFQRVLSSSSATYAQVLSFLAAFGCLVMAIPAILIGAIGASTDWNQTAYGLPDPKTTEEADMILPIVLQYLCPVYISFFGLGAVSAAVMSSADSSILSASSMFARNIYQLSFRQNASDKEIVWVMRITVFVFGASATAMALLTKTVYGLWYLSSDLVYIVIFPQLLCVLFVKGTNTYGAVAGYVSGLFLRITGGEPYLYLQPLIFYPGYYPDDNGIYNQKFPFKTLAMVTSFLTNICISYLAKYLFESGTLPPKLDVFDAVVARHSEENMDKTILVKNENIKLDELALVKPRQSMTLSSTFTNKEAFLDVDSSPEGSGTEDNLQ

[2] = tested on: MDCK; assay: antiviral activity against H1N1 influenza, dose response, cell-based, strain KY136 (AID 540257); format: functional; details: Canis lupus familiaris
[3] = cytotoxicity toward DRD oncogenic fibroblasts, dose response, cell-based, non-viral oncogenic, luminescence (AID 1934); format: functional; details: Homo sapiens
[4] = Luminescence Cell-Based Dose Response HTS to Identify Inhibitors of 5'UTR Stem-Loop Driven Prion Protein mRNA Translation in H4 Neuroglioblastoma Cells. [Related pubchem assays: 1827 (Project Summary), 1813 (Primary HTS)]; format: functional
[5] = inhibitors of firefly luciferase expression or activity, dose response, H4 neuroglioma cells, luminescence (AID 1990); format: functional, cell-based
[6] = tested on: BJ; assay: cytotoxicity toward Ras-transformed BJeLR fibroblasts, dose response, cell-based, alamar blue fluorescence, cherrypicked samples (AID 2631); format: functional; details: Homo sapiens;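 note: confirmatory dose-response assay in RAS-dependent BJ fibroblasts engineered with TERT, LT and ST, with cytotoxicity read by fluorescence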
[7] = luciferase reporter signal reduction – luminescence, H4-C neuroglioblastoma cells, dose response (AID 2458); format: functional, cell-based;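 note: H4 neuroglioblastoma cells stably carrying a luciferase reporter gene fusion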
[8] = tested on: BJ; assay: cytotoxicity toward BJ-TERT-LT-ST fibroblasts, dose response, cell-based, RAS-independent, luminescence (AID 1935); format: functional; details: Homo sapiens;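 note: BJ fibroblasts immortalized with TERT plus LT and ST oncogenes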
[9] = inhibitors of SNCA 5'UTR-driven translation, confirmation, luminescence, H4 neuroglioblastoma cells, dose confirmation (AID 2454); format: functional, cell-based;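 note: H4 neuroglioblastoma cells carrying an alpha-synuclein 5'UTR luciferase reporter; potency for inhibition of the luciferase signal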
[10] = tested on: BJ; assay: cells; format: functional, cell-based; details: Homo sapiens
[11] = biological target: Phospholipase A2 (Homo sapiens, UniProt P04054); assay: PLA2 enzyme inhibitors, dose response, counter-screen for ATG4B inhibitor project, biochemical, set 2 (AID 588586); format: functional
Chain of Phospholipase A2 (P04054 whole entry): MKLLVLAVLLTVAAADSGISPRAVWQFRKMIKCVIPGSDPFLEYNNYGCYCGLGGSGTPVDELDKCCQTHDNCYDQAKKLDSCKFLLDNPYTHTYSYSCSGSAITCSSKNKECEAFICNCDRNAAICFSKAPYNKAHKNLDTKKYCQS

[12] = cells; format: functional, cell-based
[13] = biological target: T2, Cysteine protease ATG4B (Homo sapiens, UniProt Q9Y4P1); assay: ATG4B protease inhibitors, dose response, biochemical, fluorescence, set 2 (AID 588584); format: functional
T2 sequence (Q9Y4P1 whole entry): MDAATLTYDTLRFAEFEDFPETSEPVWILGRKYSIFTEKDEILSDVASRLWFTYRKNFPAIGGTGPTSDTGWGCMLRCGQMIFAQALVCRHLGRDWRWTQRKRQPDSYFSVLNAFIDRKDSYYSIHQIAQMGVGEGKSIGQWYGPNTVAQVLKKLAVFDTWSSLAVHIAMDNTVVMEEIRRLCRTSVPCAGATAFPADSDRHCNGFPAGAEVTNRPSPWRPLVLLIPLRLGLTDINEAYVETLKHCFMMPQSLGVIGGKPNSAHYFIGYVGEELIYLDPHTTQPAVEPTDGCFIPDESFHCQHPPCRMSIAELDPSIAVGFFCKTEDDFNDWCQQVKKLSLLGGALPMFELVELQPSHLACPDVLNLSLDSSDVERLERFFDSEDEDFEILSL

[14] = inhibitors of SNCA 5'UTR-driven reporter translation, confirmation, H4 neuroglioma cells, luminescence (AID 1988); format: functional, cell-based
[15] = biological target: Luciferin 4-monooxygenase (Photinus pyralis, UniProt P08659); assay: Counter Screen for Luciferase-based Assay Positives. [Related pubchem assays: 620, 618, 411 ]
Chain of Luciferin 4-monooxygenase (Photinus pyralis, UniProt P08659) (P08659 whole entry): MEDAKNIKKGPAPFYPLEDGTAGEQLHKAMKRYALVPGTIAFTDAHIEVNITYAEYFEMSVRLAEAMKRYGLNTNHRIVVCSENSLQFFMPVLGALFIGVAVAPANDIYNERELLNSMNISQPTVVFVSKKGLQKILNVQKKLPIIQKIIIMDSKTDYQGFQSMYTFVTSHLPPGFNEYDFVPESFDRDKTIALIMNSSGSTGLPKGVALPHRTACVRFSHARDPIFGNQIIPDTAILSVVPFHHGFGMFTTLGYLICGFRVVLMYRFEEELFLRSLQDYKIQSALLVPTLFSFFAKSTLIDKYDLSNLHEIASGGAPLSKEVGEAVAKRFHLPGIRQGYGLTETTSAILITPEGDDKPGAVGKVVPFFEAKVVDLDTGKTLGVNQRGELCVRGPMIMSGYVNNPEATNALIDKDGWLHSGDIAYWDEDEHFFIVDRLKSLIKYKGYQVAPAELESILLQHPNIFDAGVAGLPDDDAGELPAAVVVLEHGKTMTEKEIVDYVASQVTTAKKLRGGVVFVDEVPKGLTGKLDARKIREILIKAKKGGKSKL

[16] = tested on: HEK293; assay: inhibitors of LMP1-driven NF-kB reporter, dose response, cell-based, HEK293, luciferase, cherry-pick (AID 588343); format: functional; details: Homo sapiens
[17] = tested on: HT-1080; assay: cytotoxicity in HT1080 fibrosarcoma cells, cell-based, fluorescence readout (AID 620); format: functional; details: Homo sapiens
[18] = biological target: Luciferin 4-monooxygenase (Photuris pensylvanica, UniProt Q27757); assay: firefly luciferase enzyme inhibitors, dose response, counter-screen for HSF-1 reporter inhibitor project, biochemical, Cell Titer Glo, luminescence, cherry-picks (AID 588847)
Chain of Luciferin 4-monooxygenase (Photuris pensylvanica, UniProt Q27757) (Q27757 whole entry): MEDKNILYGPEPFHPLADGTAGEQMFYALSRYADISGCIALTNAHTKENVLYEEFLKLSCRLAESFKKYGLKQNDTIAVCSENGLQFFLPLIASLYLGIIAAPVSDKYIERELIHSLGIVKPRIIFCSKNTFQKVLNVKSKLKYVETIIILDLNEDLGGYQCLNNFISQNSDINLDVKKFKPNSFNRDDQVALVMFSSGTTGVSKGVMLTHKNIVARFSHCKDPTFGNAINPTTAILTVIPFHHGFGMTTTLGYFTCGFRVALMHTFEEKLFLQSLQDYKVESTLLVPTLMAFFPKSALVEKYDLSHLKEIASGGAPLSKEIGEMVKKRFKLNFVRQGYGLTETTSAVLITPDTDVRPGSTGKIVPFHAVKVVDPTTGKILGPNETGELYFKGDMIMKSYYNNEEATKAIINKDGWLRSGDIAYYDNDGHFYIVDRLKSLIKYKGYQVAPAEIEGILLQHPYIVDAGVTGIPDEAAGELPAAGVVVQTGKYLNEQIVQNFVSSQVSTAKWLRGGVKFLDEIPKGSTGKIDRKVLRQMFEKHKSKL

[19] = biological target: T3, Heat shock factor protein 1 (Mus musculus, UniProt P38532); assay: inhibition of MG132-induced HSE-luciferase signal, confirmation, cell-based, NIH3T3, luminescence, dose retest (AID 2382); format: functional;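 note: NIH3T3 fibroblasts with HSF1-driven luciferase reporter stressed by proteasome inhibitor MG132; luminescence from HSF1-driven luciferase expression after 8 hours of MG132 stress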
T3 sequence (P38532 whole entry): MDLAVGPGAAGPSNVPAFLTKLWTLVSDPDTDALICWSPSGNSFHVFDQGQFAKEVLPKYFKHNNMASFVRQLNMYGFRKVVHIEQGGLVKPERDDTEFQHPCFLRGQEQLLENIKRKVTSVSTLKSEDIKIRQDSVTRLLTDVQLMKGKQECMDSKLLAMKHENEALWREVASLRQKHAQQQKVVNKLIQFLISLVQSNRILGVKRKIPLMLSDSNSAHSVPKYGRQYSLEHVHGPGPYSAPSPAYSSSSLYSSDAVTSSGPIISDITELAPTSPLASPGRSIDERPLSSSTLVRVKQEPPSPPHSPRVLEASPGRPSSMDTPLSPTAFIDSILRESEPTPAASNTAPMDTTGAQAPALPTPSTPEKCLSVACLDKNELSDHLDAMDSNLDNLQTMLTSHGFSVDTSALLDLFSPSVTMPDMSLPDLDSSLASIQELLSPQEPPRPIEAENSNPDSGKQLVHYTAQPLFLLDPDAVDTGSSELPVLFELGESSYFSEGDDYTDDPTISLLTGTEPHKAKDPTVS

[20] = biological target: T4, Hexokinase-1 (Homo sapiens, UniProt P19367); assay: HK1 enzyme inhibition by HKDC1 hits, SAR follow-up, selectivity assay for HKDC1 inhibitor project, biochemical, set 2, resazurin fluorescence coupled readout (AID 588356); format: functional
T4 sequence (P19367 whole entry): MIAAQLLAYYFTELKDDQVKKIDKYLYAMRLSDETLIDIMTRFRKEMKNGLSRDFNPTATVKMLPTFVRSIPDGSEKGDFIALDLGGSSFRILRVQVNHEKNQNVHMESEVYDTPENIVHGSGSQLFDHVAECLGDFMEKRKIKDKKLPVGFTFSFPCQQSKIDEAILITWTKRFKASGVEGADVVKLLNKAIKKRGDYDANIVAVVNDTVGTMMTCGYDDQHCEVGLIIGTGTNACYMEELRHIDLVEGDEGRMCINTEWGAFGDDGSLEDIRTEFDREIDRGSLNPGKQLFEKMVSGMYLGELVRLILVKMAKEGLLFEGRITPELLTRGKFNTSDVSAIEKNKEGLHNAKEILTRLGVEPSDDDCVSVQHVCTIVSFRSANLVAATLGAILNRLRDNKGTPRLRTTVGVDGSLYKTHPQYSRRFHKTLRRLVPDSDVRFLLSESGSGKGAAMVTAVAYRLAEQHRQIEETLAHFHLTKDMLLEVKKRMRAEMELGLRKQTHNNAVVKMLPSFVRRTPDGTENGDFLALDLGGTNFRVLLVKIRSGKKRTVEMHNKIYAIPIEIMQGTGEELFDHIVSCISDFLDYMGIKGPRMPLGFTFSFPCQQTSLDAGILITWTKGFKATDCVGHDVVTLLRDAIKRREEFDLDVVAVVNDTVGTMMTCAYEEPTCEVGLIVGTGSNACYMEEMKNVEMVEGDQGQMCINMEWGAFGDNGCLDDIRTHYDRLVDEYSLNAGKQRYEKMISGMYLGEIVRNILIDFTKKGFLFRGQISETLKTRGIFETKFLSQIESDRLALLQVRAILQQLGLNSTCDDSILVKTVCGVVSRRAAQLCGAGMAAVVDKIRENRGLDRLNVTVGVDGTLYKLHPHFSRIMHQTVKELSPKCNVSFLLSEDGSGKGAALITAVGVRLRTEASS

[21] = biological target: T5, Hexokinase HKDC1 (Homo sapiens, UniProt Q2TB90); assay: HKDC1 hexokinase inhibitors, SAR follow-up, biochemical, set 2 (AID 588355); format: functional
T5 sequence (Q2TB90 whole entry): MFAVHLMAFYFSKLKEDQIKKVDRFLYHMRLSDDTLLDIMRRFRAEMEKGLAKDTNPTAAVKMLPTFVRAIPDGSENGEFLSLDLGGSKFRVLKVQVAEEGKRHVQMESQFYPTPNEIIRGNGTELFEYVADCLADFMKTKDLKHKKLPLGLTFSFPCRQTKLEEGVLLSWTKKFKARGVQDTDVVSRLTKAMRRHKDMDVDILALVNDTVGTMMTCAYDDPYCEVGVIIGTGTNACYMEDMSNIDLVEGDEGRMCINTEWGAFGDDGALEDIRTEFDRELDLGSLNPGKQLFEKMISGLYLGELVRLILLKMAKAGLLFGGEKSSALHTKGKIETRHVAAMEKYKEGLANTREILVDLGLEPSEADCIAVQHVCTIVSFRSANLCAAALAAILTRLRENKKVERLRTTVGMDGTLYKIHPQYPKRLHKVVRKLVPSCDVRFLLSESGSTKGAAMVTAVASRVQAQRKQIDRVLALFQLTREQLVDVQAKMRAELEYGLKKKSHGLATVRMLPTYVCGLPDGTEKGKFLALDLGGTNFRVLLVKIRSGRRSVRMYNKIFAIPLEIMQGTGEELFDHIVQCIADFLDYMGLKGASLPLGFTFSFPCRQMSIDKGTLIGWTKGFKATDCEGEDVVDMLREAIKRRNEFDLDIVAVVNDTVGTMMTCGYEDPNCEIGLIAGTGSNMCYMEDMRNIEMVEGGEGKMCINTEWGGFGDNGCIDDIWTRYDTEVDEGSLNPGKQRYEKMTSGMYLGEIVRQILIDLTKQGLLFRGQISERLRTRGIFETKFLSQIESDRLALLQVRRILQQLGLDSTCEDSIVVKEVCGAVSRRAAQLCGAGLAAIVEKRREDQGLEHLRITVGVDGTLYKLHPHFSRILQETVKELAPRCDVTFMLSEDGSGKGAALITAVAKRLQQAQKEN

In the case of O=S(=O)(Cc1cc(Cl)nc(-c2cccnc2)n1)c1ccccc1, the IC50 [1] is reported as 10.5 µM (active) and the IC50 [2] is reported as > 100 µM (active).
With CCC1=Nc2cc(C(=O)NCc3ccco3)ccc2Sc2ccc(C)cc21 the EC50 [3] was 0.496 µM (active), the EC50 [4] was 0.243 µM (active) and the EC50 [5] was 0.25 µM (active). The EC50 [6] was < 0.104 µM (active), the EC50 [7] was 0.756 µM (active) and the EC50 [8] was 0.597 µM (active). For the same molecule, the EC50 [9] was > 12 µM (inconclusive), the EC50 [10] was 13.1 µM (inconclusive) and the IC50 [11] was 51.7 µM (inactive). The EC50 [12] was 0.919 µM (active), the IC50 [13] was > 80 µM (inactive) and the EC50 [14] was < 0.1 µM (active).
For Cc1nc(Nc2nc3ccccc3o2)nc2c1CCC2, the EC50 [15] was 5.88 µM (active), the AC50 [16] was 2.54 µM (active) and the EC50 [17] was > 50 µM (not active).
For CC(C)(C)c1ccc(/C=N/Nc2cccc(C(=O)O)c2)cc1, the AC50 [18] was 3.37 µM (active) and the EC50 [19] was < 0.16 µM (active).
With CNc1cc2n(c(=O)n1)CCc1cc(OC)c(OC)cc1-2 the IC50 [20] was > 80 µM (inactive) and the IC50 [21] was > 80 µM (inactive).
